Data from the NIST ThermoML archive (doi:10.1021/je400184t).
± gives the expanded uncertainty stated by the source.

Experiment: excess molar enthalpy (molar enthalpy of mixing); xn = mol fraction of the nth substance listed
Conditions: 298.15 K, 101 kPa, Liquid, Calvet calorimetry

CN(CCO)CCO [N-methyldiethanolamine] + c1ccncc1
Conditions	excess molar enthalpy [kcal/mol]
x2 = 0.00136	-0.000478 ± 0.000478
x2 = 0.00718	-0.00191 ± 0.000478
x2 = 0.01292	-0.00335 ± 0.000478
x2 = 0.0186	-0.00454 ± 0.000478
x2 = 0.02422	-0.00598 ± 0.000478
x2 = 0.03106	-0.00717 ± 0.000478
x2 = 0.0378	-0.00837 ± 0.000478
x2 = 0.04445	-0.00956 ± 0.000478
x2 = 0.051	-0.0105 ± 0.000478
x2 = 0.05747	-0.0115 ± 0.000478
x2 = 0.06385	-0.0124 ± 0.000478
x2 = 0.0715	-0.0134 ± 0.000478
x2 = 0.07636	-0.0143 ± 0.000478
x2 = 0.08249	-0.0151 ± 0.000478
x2 = 0.08853	-0.0158 ± 0.000478
x2 = 0.0945	-0.0165 ± 0.000478
x2 = 0.1062	-0.0172 ± 0.000478
x2 = 0.1119	-0.0179 ± 0.000478
x2 = 0.1176	-0.0186 ± 0.000478
x2 = 0.1232	-0.0191 ± 0.000478
x2 = 0.1287	-0.0198 ± 0.000478
x2 = 0.1342	-0.0203 ± 0.000478
x2 = 0.139	-0.0208 ± 0.000478
x2 = 0.1396	-0.0215 ± 0.000478
x2 = 0.1449	-0.022 ± 0.000478
x2 = 0.1528	-0.0225 ± 0.000478
x2 = 0.1606	-0.0232 ± 0.000478
x2 = 0.2605	-0.0282 ± 0.000717
x2 = 0.2684	-0.0284 ± 0.000717
x2 = 0.2722	-0.0287 ± 0.000717
x2 = 0.278	-0.0287 ± 0.000717
x2 = 0.2817	-0.0289 ± 0.000717
x2 = 0.2854	-0.0287 ± 0.000717
x2 = 0.2891	-0.0287 ± 0.000717
x2 = 0.2928	-0.0289 ± 0.000717
x2 = 0.2964	-0.0289 ± 0.000717
x2 = 0.2999	-0.0289 ± 0.000717
x2 = 0.3034	-0.0289 ± 0.000717
x2 = 0.3069	-0.0289 ± 0.000717
x2 = 0.3104	-0.0289 ± 0.000717
x2 = 0.3138	-0.0289 ± 0.000717
x2 = 0.3172	-0.0287 ± 0.000717
x2 = 0.3206	-0.0287 ± 0.000717
x2 = 0.3239	-0.0287 ± 0.000717
x2 = 0.3272	-0.0287 ± 0.000717
x2 = 0.3304	-0.0287 ± 0.000717
x2 = 0.3337	-0.0287 ± 0.000717
x2 = 0.3368	-0.0287 ± 0.000717
x2 = 0.34	-0.0287 ± 0.000717
x2 = 0.3431	-0.0284 ± 0.000717
x2 = 0.3463	-0.0284 ± 0.000717
x2 = 0.3493	-0.0284 ± 0.000717
x2 = 0.3524	-0.0284 ± 0.000717
x2 = 0.3554	-0.0284 ± 0.000717
x2 = 0.3584	-0.0282 ± 0.000717
x2 = 0.3614	-0.0282 ± 0.000717
x2 = 0.3643	-0.0282 ± 0.000717
x2 = 0.3672	-0.0282 ± 0.000717
x2 = 0.3701	-0.028 ± 0.000717
x2 = 0.3729	-0.028 ± 0.000717
x2 = 0.3758	-0.028 ± 0.000717
x2 = 0.3786	-0.0277 ± 0.000717
x2 = 0.3814	-0.0277 ± 0.000717
x2 = 0.3841	-0.0277 ± 0.000717
x2 = 0.3868	-0.0277 ± 0.000717
x2 = 0.3895	-0.0275 ± 0.000717
x2 = 0.3922	-0.0275 ± 0.000717
x2 = 0.3949	-0.0275 ± 0.000717
x2 = 0.3975	-0.0272 ± 0.000717
x2 = 0.4001	-0.0272 ± 0.000717
x2 = 0.4027	-0.0272 ± 0.000717
x2 = 0.4053	-0.027 ± 0.000717
x2 = 0.4078	-0.027 ± 0.000717
x2 = 0.4104	-0.027 ± 0.000717
x2 = 0.4129	-0.0268 ± 0.000717
x2 = 0.4153	-0.0268 ± 0.000717
x2 = 0.4178	-0.0268 ± 0.000717
x2 = 0.4203	-0.0265 ± 0.000717
x2 = 0.4227	-0.0265 ± 0.000717
x2 = 0.4251	-0.0265 ± 0.000717
x2 = 0.4274	-0.0263 ± 0.000717
x2 = 0.4298	-0.0263 ± 0.000717
x2 = 0.4321	-0.0263 ± 0.000717
x2 = 0.4345	-0.0261 ± 0.000717
x2 = 0.4368	-0.0261 ± 0.000717
x2 = 0.4391	-0.0258 ± 0.000717
x2 = 0.4414	-0.0258 ± 0.000717
x2 = 0.4436	-0.0258 ± 0.000717
x2 = 0.446	-0.0256 ± 0.000717
x2 = 0.4482	-0.0256 ± 0.000717
x2 = 0.4505	-0.0256 ± 0.000717
x2 = 0.4528	-0.0253 ± 0.000717
x2 = 0.4551	-0.0253 ± 0.000717
x2 = 0.4574	-0.0251 ± 0.000717
x2 = 0.4597	-0.0251 ± 0.000717
x2 = 0.462	-0.0251 ± 0.000717
x2 = 0.4643	-0.0249 ± 0.000717
x2 = 0.4666	-0.0249 ± 0.000717
x2 = 0.4689	-0.0246 ± 0.000717
x2 = 0.4712	-0.0246 ± 0.000717
x2 = 0.4735	-0.0246 ± 0.000717
x2 = 0.4758	-0.0244 ± 0.000717
x2 = 0.4781	-0.0244 ± 0.000717
x2 = 0.4804	-0.0241 ± 0.000717
x2 = 0.4827	-0.0241 ± 0.000717
x2 = 0.4849	-0.0241 ± 0.000717
x2 = 0.4872	-0.0239 ± 0.000717
x2 = 0.4895	-0.0239 ± 0.000717
x2 = 0.4918	-0.0237 ± 0.000717
x2 = 0.4941	-0.0237 ± 0.000717
x2 = 0.4964	-0.0234 ± 0.000717
x2 = 0.4987	-0.0234 ± 0.000717
x2 = 0.501	-0.0234 ± 0.000717
x2 = 0.5033	-0.0232 ± 0.000478
x2 = 0.5056	-0.0232 ± 0.000478
x2 = 0.5079	-0.0229 ± 0.000478
x2 = 0.5102	-0.0229 ± 0.000478
x2 = 0.5125	-0.0227 ± 0.000478
x2 = 0.5148	-0.0227 ± 0.000478
x2 = 0.5171	-0.0225 ± 0.000478
x2 = 0.5193	-0.0225 ± 0.000478
x2 = 0.5216	-0.0222 ± 0.000478
x2 = 0.5239	-0.0222 ± 0.000478
x2 = 0.5262	-0.0222 ± 0.000478
x2 = 0.5285	-0.022 ± 0.000478
x2 = 0.5308	-0.022 ± 0.000478
x2 = 0.5331	-0.0217 ± 0.000478
x2 = 0.5354	-0.0217 ± 0.000478
x2 = 0.5377	-0.0215 ± 0.000478
x2 = 0.54	-0.0215 ± 0.000478
x2 = 0.5423	-0.0213 ± 0.000478
x2 = 0.5446	-0.0213 ± 0.000478
x2 = 0.5469	-0.021 ± 0.000478
x2 = 0.5492	-0.021 ± 0.000478
x2 = 0.5515	-0.0208 ± 0.000478
x2 = 0.5538	-0.0208 ± 0.000478
x2 = 0.5561	-0.0206 ± 0.000478
x2 = 0.5584	-0.0206 ± 0.000478
